Activity calls are given as the source filed them. No rule for the calls is given here.
Test system: CCRIS mutagenicity, Ames/micronucleus/aberration tests
Experiment: CCRIS mutagenicity studies
[1] = Test System: AMES SALMONELLA TYPHIMURIUM, Strain/Indicator: TA98, Metabolic Activation: NONE, Method: PREINCUBATION
[2] = Test System: AMES SALMONELLA TYPHIMURIUM, Strain/Indicator: TA100, Metabolic Activation: NONE, Method: PREINCUBATION
[3] = Test System: AMES SALMONELLA TYPHIMURIUM, Strain/Indicator: TA1535, Metabolic Activation: NONE, Method: PREINCUBATION
[4] = Test System: AMES SALMONELLA TYPHIMURIUM, Strain/Indicator: TA1537, Metabolic Activation: NONE, Method: PREINCUBATION
[5] = Test System: AMES SALMONELLA TYPHIMURIUM, Strain/Indicator: TA98, Metabolic Activation: NONE, Method: STANDARD PLATE
[6] = Test System: AMES SALMONELLA TYPHIMURIUM, Strain/Indicator: TA98, Metabolic Activation: RAT, LIVER, S-9, AROCLOR 1254, Method: STANDARD PLATE
[7] = Test System: AMES SALMONELLA TYPHIMURIUM, Strain/Indicator: TA100, Metabolic Activation: NONE, Method: STANDARD PLATE
[8] = Test System: AMES SALMONELLA TYPHIMURIUM, Strain/Indicator: TA100, Metabolic Activation: RAT, LIVER, S-9, AROCLOR 1254, Method: STANDARD PLATE

Measured: mutagenic call

NC(=O)c1cnccn1
inactive: Test System: AMES SALMONELLA TYPHIMURIUM, Strain/Indicator: TA98, Metabolic Activation: HAMSTER, LIVER, S-9, AROCLOR 1254 (10%), Method: PREINCUBATION inactive; negative | [1] inactive; negative | Test System: AMES SALMONELLA TYPHIMURIUM, Strain/Indicator: TA98, Metabolic Activation: RAT, LIVER, S-9, AROCLOR 1254 (10%), Method: PREINCUBATION inactive; negative | Test System: AMES SALMONELLA TYPHIMURIUM, Strain/Indicator: TA100, Metabolic Activation: HAMSTER, LIVER, S-9, AROCLOR 1254 (10%), Method: PREINCUBATION inactive; negative | [2] inactive; negative | Test System: AMES SALMONELLA TYPHIMURIUM, Strain/Indicator: TA100, Metabolic Activation: RAT, LIVER, S-9, AROCLOR 1254 (10%), Method: PREINCUBATION inactive; negative | Test System: AMES SALMONELLA TYPHIMURIUM, Strain/Indicator: TA1535, Metabolic Activation: HAMSTER, LIVER, S-9, AROCLOR 1254 (10%), Method: PREINCUBATION inactive; negative | [3] inactive; negative | Test System: AMES SALMONELLA TYPHIMURIUM, Strain/Indicator: TA1535, Metabolic Activation: RAT, LIVER, S-9, AROCLOR 1254 (10%), Method: PREINCUBATION inactive; negative | Test System: AMES SALMONELLA TYPHIMURIUM, Strain/Indicator: TA1537, Metabolic Activation: HAMSTER, LIVER, S-9, AROCLOR 1254 (10%), Method: PREINCUBATION inactive; negative | [4] inactive; negative | Test System: AMES SALMONELLA TYPHIMURIUM, Strain/Indicator: TA1537, Metabolic Activation: RAT, LIVER, S-9, AROCLOR 1254 (10%), Method: PREINCUBATION inactive; negative

C=C1C(=O)[C@]23CCC4[C@](C)(CCC[C@@]4(C)C(=O)O)C2CC[C@@]1(O)C3 (stereo partly drawn)
active: Test System: AMES SALMONELLA TYPHIMURIUM, Strain/Indicator: TM677, Metabolic Activation: NONE, Method: PREINCUBATION active; positive

O[C@@H]1C=Cc2c(ccc3cc4ccccc4cc23)[C@H]1O
active: Test System: CHINESE HAMSTER V-79, Strain/Indicator: V-79/OUABAIN, Metabolic Activation: CELL-MEDIATED, Method: STANDARD PLATE active; positive

OCc1cc2ccc3cccc4ccc(c1)c2c34
active: Test System: AMES SALMONELLA TYPHIMURIUM, Strain/Indicator: TA98, Metabolic Activation: HUMAN, LIVER, CYTOSOL, PAPS, Method: PREINCUBATION active; positive

ClCCOCCCl
active: Test System: AMES SALMONELLA TYPHIMURIUM, Strain/Indicator: TA100, Metabolic Activation: NONE, Method: DESICCATOR active; positive | [3] active; positive
inactive: End Point: IN VITRO CHROMOSOMAL ABERRATIONS, Test System: CHO CELLS, Metabolic Activation: NONE inactive; negative | End Point: IN VITRO CHROMOSOMAL ABERRATIONS, Test System: CHO CELLS, Metabolic Activation: RAT, LIVER, S-9, AROCLOR 1254 inactive; negative | Test System: AMES SALMONELLA TYPHIMURIUM, Strain/Indicator: TA98, Metabolic Activation: HAMSTER, LIVER, S-9, PHENOBARBITAL AND BETA-NAPHTHOFLAVONE, Method: PREINCUBATION inactive; negative | [1] inactive; negative | Test System: AMES SALMONELLA TYPHIMURIUM, Strain/Indicator: TA98, Metabolic Activation: RAT, LIVER, S-9, PHENOBARBITAL AND BETA-NAPHTHOFLAVONE, Method: PREINCUBATION inactive; negative | Test System: AMES SALMONELLA TYPHIMURIUM, Strain/Indicator: TA100, Metabolic Activation: HAMSTER, LIVER, S-9, PHENOBARBITAL AND BETA-NAPHTHOFLAVONE, Method: PREINCUBATION inactive; negative | [2] inactive; negative | Test System: AMES SALMONELLA TYPHIMURIUM, Strain/Indicator: TA100, Metabolic Activation: RAT, LIVER, S-9, PHENOBARBITAL AND BETA-NAPHTHOFLAVONE, Method: PREINCUBATION inactive; negative | Test System: AMES SALMONELLA TYPHIMURIUM, Strain/Indicator: TA1537, Metabolic Activation: HAMSTER, LIVER, S-9, PHENOBARBITAL AND BETA-NAPHTHOFLAVONE, Method: PREINCUBATION inactive; negative | [4] inactive; negative | Test System: AMES SALMONELLA TYPHIMURIUM, Strain/Indicator: TA1537, Metabolic Activation: RAT, LIVER, S-9, PHENOBARBITAL AND BETA-NAPHTHOFLAVONE, Method: PREINCUBATION inactive; negative | Test System: E. COLI, Strain/Indicator: WP2UVRA, Metabolic Activation: NONE, Method: PREINCUBATION inactive; negative | Test System: E. COLI, Strain/Indicator: WP2UVRA, Metabolic Activation: RAT, LIVER, S-9, PHENOBARBITAL AND BETA-NAPHTHOFLAVONE, Method: PREINCUBATION inactive; negative

O=C/C=C/c1ccc([N+](=O)[O-])cc1
inactive: Test System: AMES SALMONELLA TYPHIMURIUM, Strain/Indicator: TA100(NR), Metabolic Activation: NONE, Method: PREINCUBATION inactive; negative | Test System: MOUSE LYMPHOMA, Strain/Indicator: L5178Y (TK+/TK-), Metabolic Activation: RAT, LIVER, S-9, AROCLOR 1254, Method: SUSPENSION/PLATE inactive; negative. reevaluation of results: negative
active: Test System: AMES SALMONELLA TYPHIMURIUM, Strain/Indicator: TA98, Metabolic Activation: HAMSTER, LIVER, S-9, AROCLOR 1254, Method: STANDARD PLATE active; positive | [5] active; positive | [6] active; positive | Test System: AMES SALMONELLA TYPHIMURIUM, Strain/Indicator: TA100(1,8-DNP6), Metabolic Activation: NONE, Method: PREINCUBATION active; positive | Test System: AMES SALMONELLA TYPHIMURIUM, Strain/Indicator: TA100(1,8-DNP6), Metabolic Activation: RAT, LIVER, S-9, AROCLOR 1254, Method: PREINCUBATION active; positive | Test System: AMES SALMONELLA TYPHIMURIUM, Strain/Indicator: TA100(NR), Metabolic Activation: RAT, LIVER, S-9, AROCLOR 1254, Method: PREINCUBATION active; positive | Test System: AMES SALMONELLA TYPHIMURIUM, Strain/Indicator: TA100, Metabolic Activation: HAMSTER, LIVER, S-9, AROCLOR 1254, Method: STANDARD PLATE active; positive | [2] active; positive | [7] active; positive | Test System: AMES SALMONELLA TYPHIMURIUM, Strain/Indicator: TA100, Metabolic Activation: RAT, LIVER, S-9, AROCLOR 1254, Method: PREINCUBATION active; positive | [8] active; positive | Test System: MOUSE LYMPHOMA, Strain/Indicator: L5178Y (TK+/TK-), Metabolic Activation: NONE, Method: SUSPENSION/PLATE active; positive. reevaluation of results: positive

O=C(O)c1cn(-c2ccc(F)cc2)c2cc(N3CCNCC3)c(F)cc2c1=O
inactive: Test System: AMES SALMONELLA TYPHIMURIUM, Strain/Indicator: TA97, Metabolic Activation: NONE, Method: STANDARD PLATE inactive; negative | Test System: AMES SALMONELLA TYPHIMURIUM, Strain/Indicator: TA97, Metabolic Activation: S-9, Method: STANDARD PLATE inactive; negative | [5] inactive; negative | Test System: AMES SALMONELLA TYPHIMURIUM, Strain/Indicator: TA98, Metabolic Activation: S-9, Method: STANDARD PLATE inactive; negative | [7] inactive; negative | Test System: AMES SALMONELLA TYPHIMURIUM, Strain/Indicator: TA100, Metabolic Activation: S-9, Method: STANDARD PLATE inactive; negative | Test System: AMES SALMONELLA TYPHIMURIUM, Strain/Indicator: TA102, Metabolic Activation: NONE, Method: STANDARD PLATE inactive; negative | Test System: AMES SALMONELLA TYPHIMURIUM, Strain/Indicator: TA102, Metabolic Activation: S-9, Method: STANDARD PLATE inactive; negative

CCCCOc1cc(N=Nc2ccc(NCCO)cc2NCCO)ccc1N=Nc1c(S(=O)(=O)O)cc2ccc(N)cc2c1O
active: [6] active; positive | Test System: AMES SALMONELLA TYPHIMURIUM, Strain/Indicator: TA1538, Metabolic Activation: RAT, LIVER, S-9, AROCLOR 1254, Method: STANDARD PLATE active; positive
inactive: [5] inactive; negative | [7] inactive; negative | [8] inactive; negative | Test System: AMES SALMONELLA TYPHIMURIUM, Strain/Indicator: TA1538, Metabolic Activation: NONE, Method: STANDARD PLATE inactive; negative

Reference: PubChem BioAssay AID1259407 (Chemical Carcinogenesis Research Information System (CCRIS), 2018)
